Measured values as given in PMC11111895, “Identification of a dCache-type chemoreceptor in Campylobacter jejuni that specifically mediates chemotaxis towards methyl pyruvate” (Frontiers in Microbiology, 2024).

Legend:
[1] = target: Tlp11-LBD T320A; assay: MST of Tlp11-LBD mutant T320A; format: binding, C. jejuni ATCC 33560; details: max ligand 2.5 mM
Experimental: (§1) The His-tag dye (MO-L018 RED-tris-NTA, NanoTemper, Germany) was adjusted to a final concentration of 25 nM and used to label the purified protein with a His-tag. The compound was diluted to a series of concentrations in phosphate-buffered saline ([Duan et al., 2023]) with 0.05% Tween 20 (PBS-T) buffer and mixed in a ratio of 1:1 with protein. The mixtures were loaded into capillaries (Monolith™ Series capillaries, NanoTemper) by means of capillary action. Thermophoresis was measured using a Monolith™ NT.115 (NanoTemper) instrument, with 40% excitation and 40% MST power configuration. The time-traces of changes in fluorescence, which reflected the thermophoretic movement of labeled protein affected by different concentrations of compound were recorded, and the dose–response curves were fitted with the ‘temperature jump and thermophoresis’ mode. Data analysis was performed using MO. Affinity Analysis version 2.3 (NanoTemper) and Prism version 8.0.2 (GraphPad Software, United States).
In order to confirm the contribution of L264, N268, I276, Y291, V318, and T320 to the binding to methyl pyruvate, we generated Tlp11-LBD proteins with an alanine point mutation at individual residues, to obtain the mutant proteins L264A, N268A, I276A, Y291A, V318A, and T320A, and then analyzed the binding affinities of methyl pyruvate to these mutants using MST. […]

[2] = target: Tlp11-LBD homologue (WP_115552006.1, residues 31-329) (Helicobacter ganmani, UniProt A0A3D8IAJ9); assay: MST of Tlp11-LBD homologue; format: binding; details: H. ganmani LBD
Sequence of Tlp11-LBD homologue (WP_115552006.1, residues 31-329) (A0A3D8IAJ9 entry or part of it): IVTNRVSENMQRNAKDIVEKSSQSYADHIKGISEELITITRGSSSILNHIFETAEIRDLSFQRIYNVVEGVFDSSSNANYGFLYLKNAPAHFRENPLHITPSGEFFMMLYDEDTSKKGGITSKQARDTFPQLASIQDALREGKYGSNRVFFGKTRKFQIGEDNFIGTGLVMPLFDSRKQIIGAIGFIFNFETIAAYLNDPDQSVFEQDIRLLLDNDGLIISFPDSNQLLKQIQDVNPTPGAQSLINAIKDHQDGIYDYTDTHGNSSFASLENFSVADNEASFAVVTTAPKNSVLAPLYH
Experimental: as §1
(§2) To evaluate whether these potential Tlp11-LBD homologues could bind to methyl pyruvate, we conducted a structural analysis of the LBDs of six chemoreceptors from C. coli, H. equorum, H. himalayensis, H. mesocricetorum, H. ganmani, and C. upsaliensis using Alphafold 2. […]

[3] = target: Tlp11-LBD homologue (WP_115570384.1, residues 34-332) (Helicobacter equorum, UniProt A0A3D8ITS8); assay: MST of Tlp11-LBD homologue; format: binding
Sequence of Tlp11-LBD homologue (WP_115570384.1, residues 34-332) (A0A3D8ITS8 entry or part of it): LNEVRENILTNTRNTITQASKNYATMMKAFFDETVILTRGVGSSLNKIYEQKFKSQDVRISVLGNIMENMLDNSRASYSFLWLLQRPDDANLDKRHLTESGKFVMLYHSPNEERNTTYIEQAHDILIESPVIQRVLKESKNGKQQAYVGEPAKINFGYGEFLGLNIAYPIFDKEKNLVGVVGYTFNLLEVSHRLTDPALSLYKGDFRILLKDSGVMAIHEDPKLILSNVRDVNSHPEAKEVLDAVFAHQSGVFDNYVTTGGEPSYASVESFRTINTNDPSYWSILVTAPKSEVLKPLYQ
Experimental: as §1, §2

[4] = target: Tlp11-LBD homologue (WP_066386874.1, residues 33-320); assay: MST of Tlp11-LBD homologue; format: binding, Helicobacter himalayensis; details: H. himalayensis LBD
Experimental: as §1, §2

[5] = target: Tlp11-LBD homologue (WP_257425542.1, residues 31-331); assay: MST of Tlp11-LBD homologue; format: binding, Campylobacter upsaliensis; details: C. upsaliensis LBD
Experimental: as §1, §2

[6] = tested on: C. jejuni NCTC 11168ΩTlp11 cells; format: cell-based, Campylobacter jejuni; details: 11168ΩTlp11 cells; microfluidic device, 30 min
[7] = tested on: C. jejuni WT NCTC 11168 cells; format: cell-based, Campylobacter jejuni; details: WT NCTC 11168 cells; microfluidic device, 30 min
[8] = tested on: C. jejuni 11168ΩTlp11/ΔCheY; format: cell-based, Campylobacter jejuni; details: 11168ΩTlp11/ΔCheY; microfluidic device
[9] = tested on: pin-head Tar (Tar without LBD) or WT Tar; assay: Microfluidic chemotaxis of E. coli expressing pin-head Tar or WT Tar; format: cell-based, E. coli VS188; details: microfluidic device, 50 min
[10] = tested on: Tlp11[1-343]-PhoQ[202-486] (Tlp343PhoQ202); assay: Hybrid kinase Tlp11-PhoQ GFP reporter assay; format: cell-based, E. coli MG1655/ΔPhoQ; details: stimulation for 40 min
Experimental: (§3) The reporter plasmid pUA66-PmgtLA-GFP and the plasmid encoding the hybrid kinase were together transformed into E. coli MG1655/ΔPhoQ strain. E. coli cells containing the reporter and Tlp11-PhoQ chimera were incubated in Medium A, at 37°C, with shaking (200 rpm), until an OD600 of 0.4 was attained, following which different concentrations of methyl pyruvate were added to the medium and the cells were incubated for 40 min. The fluorescence intensity of the cells was monitored using a plate reader (Varioskan™ LUX, Life Technologies) equipped with a 488 nm laser and a 528/12 bandpass filter. The acquired data were analyzed using Prism 8.0.2.
(§4) To construct the signal input module, we fused the Tlp11-LBD with the PhoQ cytoplasmic region, to design the Tlp11-PhoQ hybrid kinases (Supplementary Figure S6), Tlp11[1-337]-PhoQ[200-486] (Tlp337PhoQ200), Tlp11[1-339]-PhoQ[200-486] (Tlp339PhoQ200), Tlp11[1-339]-PhoQ[201-486] (Tlp339PhoQ201), Tlp11[1-340]-PhoQ[202-486] (Tlp340PhoQ202), Tlp11[1-340]-PhoQ[200-486] (Tlp340PhoQ200), Tlp11[1-341]-PhoQ[202-486] (Tlp341PhoQ202), Tlp11[1-342]-PhoQ[[…]] (Tlp342PhoQ202), Tlp11[1-343]-PhoQ[202-486] (Tlp343PhoQ202), which connected Tlp11 and PhoQ in TM2 (Supplementary Figure S7C). The activity of each chimera in sensing methyl pyruvate was determined by measuring the fluorescence intensity of GFP in the E. coli MG1655/ΔPhoQ strain.

[11] = tested on: full-length PhoQ or an empty vector; assay: GFP reporter assay, control cells; format: cell-based, E. coli MG1655/ΔPhoQ; details: 40 min
Experimental: as §3, §4

In the case of `COC(=O)C(C)=O` [methyl pyruvate, Methyl pyruvate], the “Kd (binding curve fit)” value [1] is reported as “unable to obtain fitted Kd values”, the Kd [2] is reported as 1.6 ± 0.2 mM and the Kd [3] is reported as 0.34 ± 0.043 mM. For the same compound, the Kd [4] was 1.1 ± 0.3 mM, the Kd [5] was 1.9 ± 0.5 mM and the chemotactic response [6] was “robust attractant response”. For the same compound, the chemotactic response [7] was “failed to show any chemotaxis”, the chemotactic response [8] was “no chemotaxis” and the “chemotactic response of E. coli expressing pin-head Tar or WT Tar as the sole chemoreceptor” value [9] was “no response or a much weaker response”. The “response (GFP fluorescence intensity) of Tlp343PhoQ202” value [10] was “significant concentration-dependence” and the “response (GFP fluorescence intensity) of control cells” value [11] was “almost no response”.
